Converted amounts (≈) assume the structure as drawn.
Columns and labels:
[1] = tested on: HIV-1IIIB; experiment: Anti-HIV activity in H9 cells; assay type: cell-based; conditions: H9 cells; for TI: CC50/EC50; for EC50: Human immunodeficiency virus 1, HIV-1IIIB, read-out: EC50
Protocol: (§1) The anti-HIV activity was determined by the “Guiding Principles of Anti HIV Drug Unclinical Pharmacodynamics” of SFDA which is tested by technology standard assay according to International Universal Standards and Methods. Where in CC50, EC50 were measured twice and took the average.

[2] = Cytotoxicity (CC50) in C8166 cells; assay type: cell-based; conditions: human
Protocol: as §1

[3] = Activity for HIV-2 ROD
[4] = tested on: HIV-2 ROD; experiment: Activity for HIV-2 ROD; conditions: for TI: HIV-2 ROD; for EC50: Human immunodeficiency virus 2
[5] = Cytotoxicity (CC50) in H9 cells; assay type: cell-based, human; conditions: human, read-out: CC50
Protocol: as §1

[6] = tested on: HIV-2 CBL-20; experiment: Activity for HIV-2 CBL-20; conditions: for TI: HIV-2 CBL-20; for EC50: Human immunodeficiency virus 2
[7] = Activity for HIV-2 CBL-20
[8] = tested on: HIV-1IIIB; experiment: Anti-HIV activity in C8166 cells; assay type: cell-based; conditions: C8166 cells; for TI: CC50/EC50; for EC50: Human immunodeficiency virus 1, HIV-1IIIB, read-out: EC50
Protocol: as §1

[9] = for safety at high dose: high dose (10 g/kg); for acute toxicity test finding: in vivo
[10] = tested on: HIV-1A17; experiment: microbe, parasite or virus in culture; conditions: Human immunodeficiency virus 1
[11] = tested on: HIVKM018; experiment: microbe, parasite or virus in culture; conditions: Human immunodeficiency virus 1
[12] = tested on: HIV-1TC-1; experiment: microbe, parasite or virus in culture; conditions: Human immunodeficiency virus 1
[13] = tested on: H9 cells; experiment: Cytotoxicity (CC50) in H9 cells; assay type: cell-based, human
Protocol: as §1

[14] = Solubility in aqueous solution; assay type: physicochemical
Excerpt: Solubility is an important parameter of druggability. […] They are with good solubility and can be formulated into an oral formulation. The prodrugs can be hydrolyzed into 46 which is with good fat-solubility and TI as well as distribution.

[15] = Stability (degradation) in solutions of different pH; assay type: physicochemical
Protocol: For example, compound 67 was tested in solutions with PH=4.004, 6.864 and 9.182, and its degradation rate was […]. […] As to the Mechanism of action of the compounds, the possible binding mode between 46 and vif was predicted by docking There are five possible hydrogen bonds between them: two hydrogen bonds between the nitro group and Arg79 and Lys178, two hydrogen bonds between the oxygen atom of methoxyl group with His141 and Arg97, one hydrogen bond between the nitrogen atom of pyridine with Gly103. (The binding mode can be seen in FIG. 4)

[16] = simulated gastric fluid, in aqueous solution (pH=2)

SMILES | TI [1] | EC50 [1] | CC50 [2] | CC50 [3] | TI [4] | EC50 [4] | CC50 ([5]; H9 cells) | TI [6] | EC50 [6] | CC50 [7] | TI [8] | EC50 [8] | safety at high dose [9] | acute toxicity test finding [9] | solubility [14, 16] | further results
COc1ccccc1NC(=O)c1c(N)cccc1Sc1ccc([N+](=O)[O-])cc1 [Compound 25, 2-amino-N-(2-methoxyphenyl)-6-(4-nitrophenylthi-o)benzamide] | 206.68 | 0.74 µg/mL (≈ 1.87 µM) | 65.4 µg/mL (≈ 165 µM) | 185 µg/mL (≈ 467 µM) | 312.90 | 0.59 µg/mL (≈ 1.49 µM) | 153 µg/mL (≈ 387 µM) | 199.72 | 0.82 µg/mL (≈ 2.07 µM) | 164 µg/mL (≈ 414 µM) | 310.02 | 0.21 µg/mL (≈ 0.531 µM) |  |  |  | 
COc1ccccc1NC(=O)c1c(N)cccc1S(=O)(=O)c1ccc([N+](=O)[O-])cc1 [Compound 46, 2-amino-N-(2-methoxyphenyl)-6-((4-nitroph-enyl)sulfonyl)benzamide] |  | 0.66 µg/mL (≈ 1.54 µM) | 141 µg/mL (≈ 329 µM) | > 200 µg/mL | 487.8 | 0.41 µg/mL (≈ 0.959 µM) |  | 444.44 | 0.45 µg/mL (≈ 1.05 µM) | > 200 µg/mL |  | 0.096 µg/mL (≈ 0.225 µM) | very safe | no abnormal phenomenon occurred |  | EC50 [10]: 18.7 µg/mL (≈ 43.8 µM); CC50 [5]: > 200 µg/mL; EC50 [11]: 6.23 µg/mL (≈ 14.6 µM); EC50 [12]: 0.11 µg/mL (≈ 0.257 µM)
COc1ccccc1NC(=O)c1c(N)cccc1Oc1ccc([N+](=O)[O-])cc1 [Compound 48, 2-amino-N-(2-methoxyphenyl)-6-(4-nitrop-henoxy)benzamide] | 2.14 |  |  |  |  |  |  |  |  |  |  |  |  |  |  | CC50 [13]: 76.60 µg/mL (≈ 202 µM)
COc1ccccc1NC(=O)c1c(NC(=O)CN)cccc1Sc1ccc([N+](=O)[O-])cc1.Cl [Compound 66, 2-(2-aminoacetamido)-N-(2-methoxyphenyl)-6-(4-nitrophenylthio)benzamide hydrochloride] | 451.69 | 0.16 µg/mL | 78.3 µg/mL |  |  |  | 72.3 µg/mL |  |  |  | 97.01 | 0.81 µg/mL |  |  | 1290 µg/mL | 
COc1ccccc1NC(=O)c1c(NC(=O)CN)cccc1S(=O)(=O)c1ccc([N+](=O)[O-])cc1.Cl [Compound 67, 2-(2-aminoacetamido)-N-(2-methoxyphenyl)-6-((4-nitrophenyl)sulfonyl)benzamide hydrochloride hydrochloride] |  |  | 165 µg/mL | 126 µg/mL |  | 0.78 µg/mL | 94.9 µg/mL |  | 1.21 µg/mL | 106 µg/mL |  |  | very safe | no abnormal phenomenon occurred |  | degradation rate ([15]; solution PH=4.004): 0.2767; degradation rate ([15]; solution PH=6.864): 0.4956; degradation rate ([15]; solution PH=9.182): 9.182; solubility ([14]; aqueous buffer, in water with pH=7): 1730 µg/mL
COc1ccccc1NC(=O)c1c(NC(=O)C(N)CCCCN)cccc1Sc1ccc([N+](=O)[O-])cc1.Cl (stereo not drawn) [Compound 68, 2-(2,6-diaminohexanamido)-N-(2-methoxyphenyl)-6-((4-nitrophenyl)thio)benzamide hydrochloride] |  |  | 116 µg/mL |  |  |  | 90.1 µg/mL |  |  |  |  |  |  |  | 2850 µg/mL | 

Source: patent US9402819B2, “Anti-HIV compound and preparation method and use thereof” (Sichuan University, priority 2012, dated 2016)
